In patent US20260007617A1, “METHOD FOR TREATING RENAL CELL CARCINOMA OR CANCER” (Lantern Pharma Inc., priority 2023, published 2026):

Columns and labels:
Format in all cases: cell-based
[1] = tested on: UO31; test: cell viability IC50 over 72 hours, UO31 kidney cell line; conditions: Homo sapiens, UO-31
Experimental: (§1) FIG. 4 details the sensitivity of various cell lines to LP-184, showing cell death over 72 hours. Sensitivity, gauged by IC50 data, reflects how effectively a substance can inhibit a particular biological or biochemical function. […] This IC50 value, indicating the concentration needed to reduce cell viability by 50%, is key to understanding the compound's efficacy and the temporal response of the cells to the substance. Such analyses are vital for new drug development and therapeutic approaches, offering important insights into how cells react to different compounds over time.
as §1, with “Sensitivity,” for “FIG. 4 details the sensitivity of various cell lines to LP-184, showing cell death over 72 hours. Sensitivity,”

[2] = tested on: X7860; test: cell viability IC50 over 72 hours, X7860 kidney cell line
Experimental: as §1
as §1, with “Sensitivity,” for “FIG. 4 details the sensitivity of various cell lines to LP-184, showing cell death over 72 hours. Sensitivity,”

[3] = tested on: TK10; test: cell viability IC50 over 72 hours, TK10 kidney cell line; conditions: Homo sapiens, TK-10
Experimental: as §1
as §1, with “Sensitivity,” for “FIG. 4 details the sensitivity of various cell lines to LP-184, showing cell death over 72 hours. Sensitivity,”

[4] = tested on: CAK11; test: cell viability IC50 over 72 hours, CAK11 kidney cell line
Experimental: as §1
as §1, with “Sensitivity,” for “FIG. 4 details the sensitivity of various cell lines to LP-184, showing cell death over 72 hours. Sensitivity,”

[5] = tested on: A498; test: cell viability IC50 over 72 hours, A498 kidney cell line; conditions: for IC50: Homo sapiens, A498 cell line, Kidney, 72 hours
Experimental: as §1
as §1, with “Sensitivity,” for “FIG. 4 details the sensitivity of various cell lines to LP-184, showing cell death over 72 hours. Sensitivity,”

[6] = tested on: 786O; test: sensitivity of renal cell line 786O to LP-184; conditions: 786O cell line
Excerpt: (§2) By contrast, the RPE1 cell lines acted as a negative control, showcasing a distinct reaction to the treatment.

[7] = tested on: 769P; test: sensitivity of renal cell line 769P to LP-184; conditions: 769P cell line
Excerpt: as §2

[8] = tested on: SN12C; test: cell viability IC50 over 72 hours, SN12C kidney cell line; conditions: Homo sapiens
Experimental: as §1
as §1, with “Sensitivity,” for “FIG. 4 details the sensitivity of various cell lines to LP-184, showing cell death over 72 hours. Sensitivity,”

[9] = tested on: RXF393; test: cell viability IC50 over 72 hours, RXF393 kidney cell line; conditions: for IC50: Homo sapiens, RXF 393, RXF393 cell line, Kidney, 72 hours
Experimental: as §1
as §1, with “Sensitivity,” for “FIG. 4 details the sensitivity of various cell lines to LP-184, showing cell death over 72 hours. Sensitivity,”

[10] = tested on: ACHN; test: cell viability IC50 over 72 hours, ACHN kidney cell line; conditions: Homo sapiens
Experimental: as §1
as §1, with “Sensitivity,” for “FIG. 4 details the sensitivity of various cell lines to LP-184, showing cell death over 72 hours. Sensitivity,”

Structure (SMILES)	IC50 [1]	IC50 [2]	IC50 [3]	IC50 [4]	sensitivity of cell line (in words) ([5]; A498 clear cell renal carcinoma cell line)	IC50 [5]	sensitivity of cell line (in words) [6]	sensitivity of cell line (in words) [7]	IC50 [8]	IC50 [9]	sensitivity of cell line (in words) ([9]; RXF393 clear cell renal carcinoma cell line)	IC50 [10]
CC1=C(CN(O)C(N)=O)C2=C(C)C3(CC3)[C@@](C)(O)C(=O)C2=C1 [LP-184, (−)-hydroxyureamethyl acylfulvene]	178 nM	331 nM	314 nM	282 nM	high sensitivity	179 nM	low sensitivity	low sensitivity	349 nM	152 nM	high sensitivity	222 nM
CC1=C(CN(O)C(N)=O)C2=C(C)C3(CC3)[C@](C)(O)C(=O)C2=C1 [LP-284, (+)-hydroxyureamethyl acylfulvene]	254 nM	2240 nM	2010 nM	1910 nM	–	1350 nM	–	–	2620 nM	328 nM	–	1130 nM
